Test results from US4461899A, “Fluorenecarboxylic acid derivatives” (Diamond Shamrock Chemicals Company, priority 1982, dated 1984).

What was measured:
[1] = test system: "Walter" variety tomato plants; experiment: Yield of "Walter" variety tomatoes, weekly harvest of mature red fruit; type: in vivo; details: for Total Fruit / Total Fruit, % of Control: weeks 1-6
Excerpt: Compounds of this invention were further tested as tomato yield enhancers as follows:
"Walter" variety tomato plants, in the early flowering stage, were foliage sprayed at a rate of 68.8 liters/hectare with compounds of this invention, and with the commercial product, CF-125. Each plot consisted of 20 plants; the experimental design was a completed randomized block with three replications. A plot of untreated plants was included as a control. Marketable, mature red tomatoes were harvested weekly, beginning 5 weeks after treatment.

[2] = test system: plants being treated; details: background; in many instances; cited from earlier work
[3] = test system: field grown tomato plants; experiment: Overall yield and fruit size of field grown tomatoes; type: in vivo; details: for Fruit Size, Green (% of Control): control 104.0 g; for Fruit Size, Red (% of Control): control 105.5 g
Excerpt: This example illustrates the effects of compounds of this invention on overall yield of tomatoes. For the test, field grown tomato plants, when in the early flowering stage, were foliage sprayed with the particular compounds of the invention designated below, and with the commercial product CF-125 (Maintain), at rates of 10, 50 and 500 ppm. These rates correspond to applications of 3.69 g, 18.54 g and 185.4 g/hectare, respectively. Each treatment consisted of five plants; the experimental design was a complete randomized block with three replications. A block of untreated plants was included as the control. The fruit was harvested by hand and separated into […] ripe fruit and marketable green fruit.

[4] = test system: Kentucky and Merion turfgrass mixture; experiment: Turfgrass growth retardation (height and fresh weight of clippings) after spraying; type: in vivo; details: vs control
Description: Two known plant growth regulants were similarly tested. Some grass samples were not treated, only fertilized, as controls. Before treatment, the grass was cut and then fertilized with a 20-20-20 water-soluble fertilizer. Three pots were sprayed per treatment. […] The pots were placed in a plant growth room and were watered daily. The grass was cut at 21, 49 and 84 days after being treated; the blade height and total fresh weight of the clippings were measured.

[5] = test system: field grown tomato plants; experiment: Fruit set and phytotoxicity in field grown tomato plants; type: in vivo; details: for Increase Over Control (%) of fruit set: 24 days; for Fruit Set Per Plant (After 24 days): 24 days after treatment; for Increase (%) of fruit set: initial to 24 days
Excerpt: To determine fruit set effects by compounds of this invention, field grown tomato plants were foliage sprayed with the cis-2,5-dimethylpyrrolidine salt of […], 9-cis-2,5-dimethyl-1-pyrrolidinyl-2-chlorofluorene-9-carboxylic acid, methyl ester, and the commercial plant growth regulant, MAINTAIN CF-125 (methyl-2-chloro-9hydroxyfluorene-9-carboxylate, manufactured by U.S. Borax and Chemical Corp.). Rates of application employed were 5, 25, and 100 ppm when the tomato plants were in the late blooming to early fruit setting stage. Untreated plants were included in the test as controls. Five plants were sprayed for each chemical treatment. The number of fruit set and the degree of phytotoxicity to the plants were determined 24 days after treatment.

[6] = 1.12 kilogram/hectare, after 21 days
[7] = 1.12 kilogram/hectare, after 49 days
[8] = 1.12 kilogram/hectare, after 84 days
[9] = 2.24 kilogram/hectare, after 21 days
[10] = 2.24 kilogram/hectare, after 49 days
[11] = 2.24 kilogram/hectare, after 84 days
[12] = 4.48 kilogram/hectare, after 49 days
[13] = 4.48 kilogram/hectare, after 84 days

## COC(=O)C1(O)c2ccccc2-c2ccc(Cl)cc21 (stereo not shown) [MAINTAIN CF-125, methyl-2-chloro-9-hydroxyfluorene-9-carboxylate]
[1]; 5 ppm
  Fruit Yield (kg/plot): 25.6 kg/plot
  Total Yield Wt. % of Control: 108.0 % of Control
  Fruit harvested, Harvest Time (Week) 1: 34
  Fruit harvested, Harvest Time (Week) 2: 206
  Fruit harvested, Harvest Time (Week) 3: 139
  Fruit harvested, Harvest Time (Week) 4: 40
  Fruit harvested, Harvest Time (Week) 5: 29
  Fruit harvested, Harvest Time (Week) 6: 178
  Total Fruit: 626
  Total Fruit, % of Control: 109 % of Control
[1]; 10 ppm
  Fruit Yield (kg/plot): 15.3 kg/plot
  Total Yield Wt. % of Control: 64.8 % of Control
  Fruit harvested, Harvest Time (Week) 1: 6
  Fruit harvested, Harvest Time (Week) 2: 192
  Fruit harvested, Harvest Time (Week) 3: 92
  Fruit harvested, Harvest Time (Week) 4: 16
  Fruit harvested, Harvest Time (Week) 5: 4
  Fruit harvested, Harvest Time (Week) 6: 69
  Total Fruit: 379
  Total Fruit, % of Control: 66 % of Control
[1]; 50 ppm
  Fruit Yield (kg/plot): 2.6 kg/plot
  Total Yield Wt. % of Control: 11.0 % of Control
  Fruit harvested, Harvest Time (Week) 1: 15
  Fruit harvested, Harvest Time (Week) 2: 18
  Fruit harvested, Harvest Time (Week) 3: 8
  Fruit harvested, Harvest Time (Week) 4: 0
  Fruit harvested, Harvest Time (Week) 5: 0
  Fruit harvested, Harvest Time (Week) 6: 2
  Total Fruit: 43
  Total Fruit, % of Control: 7 % of Control
[2]
  phytotoxicity, in words: phytotoxic to the plants being treated
[3]; 10 ppm
  Fruit Yield, Green (% of Control): 25 % of Control
  Fruit Yield, Red (% of Control): 24 % of Control
  Total Yield (% of Control): 25 % of Control
  Fruit Size, Green (% of Control): 104 % of Control
  Fruit Size, Red (% of Control): 97 % of Control
[3]; 50 ppm
  Fruit Yield, Green (% of Control): 12 % of Control
  Fruit Yield, Red (% of Control): 122 % of Control
  Total Yield (% of Control): 44 % of Control
  Fruit Size, Green (% of Control): 62 % of Control
  Fruit Size, Red (% of Control): 88 % of Control
[3]; 500 ppm
  Fruit Yield, Green (% of Control): 3 % of Control
  Fruit Yield, Red (% of Control): 79 % of Control
  Total Yield (% of Control): 29 % of Control
  Fruit Size, Green (% of Control): 54 % of Control
  Fruit Size, Red (% of Control): 108 % of Control
[4]; [6]
  % Reduction in Weight: 31%
  Reduction in Height: 36%
[4]; [7]
  % Reduction in Weight: 0%
  Reduction in Height: 3%
[4]; [8]
  % Reduction in Weight: 0%
  Reduction in Height: 0%
[4]; [9]
  % Reduction in Weight: 38%
  Reduction in Height: 42%
[4]; [10]
  % Reduction in Weight: 0%
  Reduction in Height: 0%
[4]; [11]
  % Reduction in Weight: 0%
  Reduction in Height: 0%
[4]; 4.48 kilogram/hectare, after 21 days
  Reduction in Height: 50%
[4]; [12]
  % Reduction in Weight: 4%
  Reduction in Height: 14%
[4]; [13]
  % Reduction in Weight: 0%
  Reduction in Height: 0%
[4]; third dosage column, printed 1.12 kilogram/hectare, after 21 days
  % Reduction in Weight: 52%
[5]; 5 ppm
  Increase Over Control (%) of fruit set: -35%
  Fruit Set Per Plant (After 24 days): 11.8
  Fruit Set Per Plant (Initial): 7.8
  Increase (%) of fruit set: 38%
[5]; 25 ppm
  Increase Over Control (%) of fruit set: -23%
  Fruit Set Per Plant (After 24 days): 12.6
  Fruit Set Per Plant (Initial): 8.4
  Increase (%) of fruit set: 50%
[5]; 100 ppm
  Increase Over Control (%) of fruit set: -55%
  Fruit Set Per Plant (After 24 days): 8.0
  Fruit Set Per Plant (Initial): 6.8
  Increase (%) of fruit set: 18%
